Experiments:
Format in all cases: in vivo, human
[1] = tested on: patients with dyslipidemia showing a high level of TG being treated with ursodeoxycholic acid; assay: Changes in total bilirubin levels after 12 weeks in patients being treated with ursodeoxycholic acid (Example 2); conditions: 0.05 to 0.4 mg per day
Method: (§1) Data of patients being treated with ursodeoxycholic acid (15 cases in total) were extracted from the data obtained in a clinical trial (8 tests with an administration period of 12 weeks or more) of Compound A, which had been performed for patients with dyslipidemia showing a high level of TG, the effects of Compound A for the ALP and the total bilirubin were investigated. Compound A was administered at a dose of 0.05 to 0.4 mg per day to Compound A group. Further, placebo was administered to a control group. Each compound was administered to Compound A group and a control group for 12 weeks, and changes in the levels of ALP before and after the administration are shown in Table 3 and FIG. 3, and changes in the levels of total bilirubin before and after the administration are shown in Table 4 and FIG. 4. Note that comparisons between the groups were investigated by using covariance analysis with baseline levels used as covariates.

[2] = tested on: patients with dyslipidemia showing a high level of triglyceride (TG); assay: Changes in total bilirubin levels after 12 weeks, clinical trial data (Example 1); conditions: for total bilirubin level, Rate of change (LSmean): 12 weeks vs baseline
Method: By using data (1965 cases in total) obtained in a clinical trial (8 tests with an administration period of 12 weeks or more) of Compound A, which had been performed for patients with dyslipidemia showing a high level of triglyceride (TG), the effects of Compound A for ALP and total bilirubin were investigated. Compound A was administered at a dose of 0.05 to 0.4 mg per day to Compound A group. […] Each compound was administered to Compound A group and a control group for 12 weeks, and changes in the levels of ALP before and after the administration are shown in Table 1 and FIG. 1, and changes in the levels of total bilirubin before and after the administration are shown in Table 2 and FIG. 2. Note that comparisons between the groups were investigated by using covariance analysis with baseline levels used as covariates.

[3] = tested on: patients with dyslipidemia showing a high level of TG being treated with ursodeoxycholic acid; assay: Changes in ALP levels after 12 weeks in patients being treated with ursodeoxycholic acid (Example 2); conditions: 0.05 to 0.4 mg per day
Method: as §1

[4] = tested on: patients with dyslipidemia showing a high level of triglyceride (TG); assay: Changes in ALP levels after 12 weeks, clinical trial data (Example 1); conditions: for ALP level, Rate of change (LSmean): 12 weeks vs baseline
Method: Compound A was administered at a dose of 0.05 to 0.4 mg per day to Compound A group. […] Note that comparisons between the groups were investigated by using covariance analysis with baseline levels used as covariates.

[5] = 0.05 to 0.4 mg per day, 12 weeks
[6] = 100 mg/day micronized fenofibrate capsule formulation
[7] = 106.6 mg/day solid dispersion fenofibrate tablet

Row | Compound | effect on level of total bilirubin [1] | effect on level of total bilirubin as compared with placebo [2, 5] | effect on level of ALP [3] | effect on level of ALP as compared with placebo [4, 5] | effect on level of ALP compared with fenofibrate at the maximum clinical dose (200 mg per day) ([4]; dose of 0.1 mg or more, 12 weeks) | total bilirubin level, Rate of change (LSmean) [2, 6] | total bilirubin level, 12 Weeks ([2]; 100 mg/day micronized fenofibrate capsule formulation, 12 weeks, baseline 0.8) [mg/dL] | total bilirubin level, Rate of change (LSmean) [2, 7] | total bilirubin level, 12 Weeks ([2]; 106.6 mg/day solid dispersion fenofibrate tablet, 12 weeks, baseline 0.8) [mg/dL] | total bilirubin level, Rate of change (LSmean) ([2]; 200 mg/day micronized fenofibrate capsule formulation) | total bilirubin level, 12 Weeks ([2]; 200 mg/day micronized fenofibrate capsule formulation, 12 weeks, baseline 0.9) [mg/dL] | ALP level, Rate of change (LSmean) [4, 6] | ALP level, 12 Weeks ([4]; 100 mg/day micronized fenofibrate capsule formulation, 12 weeks, baseline 226.3) [IU/L] | ALP level, Rate of change (LSmean) [4, 7] | ALP level, 12 Weeks ([4]; 106.6 mg/day solid dispersion fenofibrate tablet, 12 weeks, baseline 235.3) [IU/L] | ALP level, 12 Weeks ([4]; 200 mg/day micronized fenofibrate capsule formulation, 12 weeks, baseline 222.5) [IU/L]
1 | CC[C@@H](Oc1cccc(CN(CCCOc2ccc(OC)cc2)c2nc3ccccc3o2)c1)C(=O)O [Compound A, (R)-2-[3-[[N-(benzoxazol-2-yl)-N-3-(4-methoxyphenoxy)propyl]aminomethyl]phenoxy] butyric acid] | decreases the levels of ALP and total bilirubin | decreases dose-dependently | decreases the levels of ALP and total bilirubin | decreases dose-dependently | decreases the level of ALP more strongly than the fenofibrate |  |  |  |  |  |  |  |  |  |  | 
2 | CC(C)OC(=O)C(C)(C)Oc1ccc(C(=O)c2ccc(Cl)cc2)cc1 [fenofibrate] |  |  |  |  |  | −5.2 | 0.7 | −4.2 | 0.7 | −9.3 | 0.7 | −11.1 | 198.7 | −14.7 | 198.8 | 182.5
